Assay results reported in publication PMC10781691, “Vertical pathway inhibition of receptor tyrosine kinases and BAD with synergistic efficacy in triple negative breast cancer” (NPJ Precision Oncology, 2024).

Columns and labels:
[1] = molecular target: T1, Recombinant human BAD (Homo sapiens, UniProt Q92934); test: SPR (BIAcore) with BAD immobilized on sensor chip; assay type: binding; conditions: analyte 1.25–160 μM
T1 construct: purchased Novoprotein, Suzhou, China
Description: To compare the binding affinity of NCK and NPB towards BAD, we performed surface plasmon resonance (SPR) measurement by immobilizing BAD protein on a sensor chip with NCK or NPB as analyte. Representative reference-subtracted overlaid sensorgrams and the kinetic parameters are specified in Fig. 2d and Supplementary Fig. 6A. […] Additionally, the pharmacological inhibition of BAD phosphorylation by NCK or NPB in TNBC cells was evaluated. […] Furthermore, the comparative potencies of NPB and NCK were evaluated in eight TNBC cell lines using total cell number assay in 2D culture and cell viability in 3D culture (Supplementary Fig. 6C, D).

[2] = test system: MDA-MB-231 cells; test: CASPASE 3/7 DEVD assay; conditions: MDA-MB-231, 5 μM NCK
[3] = test system: Flt1; design: method as in SelleckChem; conditions: ref SelleckChem; cited from earlier work
[4] = test system: LCK; design: method as in SelleckChem; conditions: ref SelleckChem; cited from earlier work

T1 sequence (Q92934 whole entry): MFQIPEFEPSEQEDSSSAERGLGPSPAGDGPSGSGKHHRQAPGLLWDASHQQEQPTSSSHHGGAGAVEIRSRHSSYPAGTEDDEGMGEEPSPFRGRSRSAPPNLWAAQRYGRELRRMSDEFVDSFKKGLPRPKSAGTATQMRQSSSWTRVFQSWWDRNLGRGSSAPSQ

Row | SMILES | Kd ([1]; read-out: Affinity (KD)) [nM] | kon ([1]; read-out: Association (Ka)) [M⁻¹ s⁻¹] | CASPASE 3/7 activity vs vehicle [2] | IC50 [3] [nM] | IC50 [4] [nM]
1 | Oc1ccccc1C(c1cccnc1)N1CCN(c2cccc(Cl)c2Cl)CC1 (centres unmarked) [NCK, 2-((4-(2,3-dichlorophenyl)piperazin-1-yl)(pyridin-3-yl)methyl) phenol] | 48.1 | 111000 | increased CASPASE 3/7 activity | – | –
2 | O=C(Nc1ccc(OC(F)(F)F)cc1)c1sccc1NCc1ccnc2ccccc12 [OSI-930] | – | – | – | 8 | 22
